The values that follow come from patent US20240025884A1 (Dong-A ST Co., Ltd., priority 2022, published 2024).

Chain of GCN2 (Q9P2K8 whole entry): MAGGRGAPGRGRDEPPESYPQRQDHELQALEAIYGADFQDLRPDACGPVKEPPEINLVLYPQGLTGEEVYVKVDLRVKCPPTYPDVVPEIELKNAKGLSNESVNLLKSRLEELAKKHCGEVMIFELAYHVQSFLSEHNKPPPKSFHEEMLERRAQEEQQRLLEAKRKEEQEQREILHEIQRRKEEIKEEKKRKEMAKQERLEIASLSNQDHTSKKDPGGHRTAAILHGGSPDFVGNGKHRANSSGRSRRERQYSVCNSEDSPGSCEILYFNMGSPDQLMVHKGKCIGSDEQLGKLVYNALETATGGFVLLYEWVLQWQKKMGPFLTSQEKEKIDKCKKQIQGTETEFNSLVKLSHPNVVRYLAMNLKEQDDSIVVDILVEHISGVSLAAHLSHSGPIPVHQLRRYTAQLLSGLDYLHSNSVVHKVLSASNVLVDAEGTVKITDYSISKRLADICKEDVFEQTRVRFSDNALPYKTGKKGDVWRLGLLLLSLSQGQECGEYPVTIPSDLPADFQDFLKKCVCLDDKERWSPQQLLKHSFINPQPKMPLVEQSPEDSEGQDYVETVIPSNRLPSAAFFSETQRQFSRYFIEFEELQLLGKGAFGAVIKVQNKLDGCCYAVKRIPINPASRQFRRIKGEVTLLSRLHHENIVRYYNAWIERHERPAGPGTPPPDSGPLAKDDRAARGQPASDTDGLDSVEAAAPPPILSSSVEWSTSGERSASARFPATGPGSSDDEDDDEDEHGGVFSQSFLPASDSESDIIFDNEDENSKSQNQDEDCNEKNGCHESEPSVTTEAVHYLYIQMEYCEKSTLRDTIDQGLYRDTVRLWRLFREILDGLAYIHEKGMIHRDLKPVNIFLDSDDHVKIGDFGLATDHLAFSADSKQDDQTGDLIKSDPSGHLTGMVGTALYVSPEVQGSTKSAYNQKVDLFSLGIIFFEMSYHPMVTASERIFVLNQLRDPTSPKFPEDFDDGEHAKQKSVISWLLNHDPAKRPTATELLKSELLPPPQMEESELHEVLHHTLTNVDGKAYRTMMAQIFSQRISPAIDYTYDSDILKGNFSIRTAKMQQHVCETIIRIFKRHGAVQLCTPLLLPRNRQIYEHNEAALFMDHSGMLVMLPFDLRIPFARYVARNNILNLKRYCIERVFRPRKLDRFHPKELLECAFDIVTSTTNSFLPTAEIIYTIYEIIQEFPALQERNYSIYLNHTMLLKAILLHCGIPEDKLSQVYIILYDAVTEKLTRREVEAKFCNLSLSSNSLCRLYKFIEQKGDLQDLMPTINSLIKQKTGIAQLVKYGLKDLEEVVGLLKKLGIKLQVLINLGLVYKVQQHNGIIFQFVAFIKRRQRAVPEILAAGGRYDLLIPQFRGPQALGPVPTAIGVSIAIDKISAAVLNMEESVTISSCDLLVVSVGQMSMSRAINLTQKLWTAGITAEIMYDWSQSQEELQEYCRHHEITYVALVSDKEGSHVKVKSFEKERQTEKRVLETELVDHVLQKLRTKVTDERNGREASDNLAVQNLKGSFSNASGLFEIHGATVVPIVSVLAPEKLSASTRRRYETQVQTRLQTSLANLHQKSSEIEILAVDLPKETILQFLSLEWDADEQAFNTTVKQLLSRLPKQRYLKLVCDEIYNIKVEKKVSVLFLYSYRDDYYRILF

This assay addresses GCN2 (Homo sapiens (Human), UniProt Q9P2K8). The assay can be described thus: GCN2 Biochemical Assay (TR-FRET, GFP-eIF2S1 substrate phosphorylation). The following applies: read-out: IC50 (GCN2 Inhibitory Activity). Put shortly: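 TR-FRET readout (Ex 340, Em 490/520 nm) after 2–3 h with Tb-labelled phospho-eIF2S1 antibody in stop mix, following a 70 min room-temperature kinase step. Reaction: in-house GCN2, GFP-eIF2S1, ATP, tRNA in Tris pH 7.5 (2× stocks 1.6 nM, 50 nM, 0.2 mM); compounds tested at 10 concentrations, with a phospho-substrate artifact counter-plate.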
A general note: In TR-FRET formats the signal depends on donor and acceptor labels being close together.
For orientation: IC50 means the concentration that inhibits the measured activity by half. Turning to `Cc1cncc(-c2ccc(F)c3c2CN(c2cccc4c(-c5nc(Nc6cc(C)n(C)n6)ncc5C)c[nH]c24)C3=O)c1` [Example 486, 2-(3-(2-((1,5-dimethyl-1H-pyrazol-3-yl)amino)-5-methylpyrimidin-4-yl)-1H-indol-7-yl)-7-fluoro-4-(5-methylpyridin-3-yl)isoindolin-1-one], the IC50 was less than 10 nM.
Under `CNc1cc(-c2cccc3c2CN(c2cccc4c(-c5nc(Nc6cc(C)n(C)n6)ncc5C)c[nH]c24)C3=O)ccn1` [Example 476, 2-(3-(2-((1,5-dimethyl-1H-pyrazol-3-yl)amino)-5-methylpyrimidin-4-yl)-1H-indol-7-yl)-4-(2-(methylamino)pyridin-4-yl)isoindolin-1-one] stands less than 10 nM.
Then `Cc1cnc(Nc2cc(C)n(C)n2)nc1-c1c[nH]c2c(NC(=O)CN3CC=C(c4ccncc4)CC3)cccc12` [Example 34, 2-(3,6-dihydro-[4,4′-bipyridin]-1(2H)-yl)-N-(3-(2-((1,5-dimethyl-1H-pyrazol-3-yl)amino)-5-methylpyrimidin-4-yl)-1H-indol-7-yl)acetamide], with 100 to 1000 nM; and `COc1cc(-c2cccc3c2CN(c2cccc4c(-c5nc(Nc6cc(C)n(C)n6)ncc5C)c[nH]c24)C3=O)ccn1` [Example 445, 2-(3-(2-((1,5-dimethyl-1H-pyrazol-3-yl)amino)-5-methylpyrimidin-4-yl)-1H-indol-7-yl)-4-(2-methoxypyridin-4-yl)isoindolin-1-one], with less than 10 nM.
Then `Cc1cnc(Nc2cc(C)n(C)n2)nc1-c1c[nH]c2c(NC(=O)CN3CC[C@H](Oc4cc(NC5CC5)ncn4)C3)cccc12` [Example 151, (S)-2-(3-((6-(cyclopropylamino)pyrimidin-4-yl)oxy)pyrrolidin-1-yl)-N-(3-(2-((1,5-dimethyl-1H-pyrazol-3-yl)amino)-5-methylpyrimidin-4-yl)-1H-indol-7-yl)acetamide], with less than 10 nM; and `Cc1cnc(Nc2cc(C)n(C)n2)nc1-c1c[nH]c2c(N3Cc4c(NC(=O)C5CCCC(C)C5)cccc4C3=O)cccc12` (stereo not shown) [Example 329, N-(2-(3-(2-((1,5-dimethyl-1H-pyrazol-3-yl)amino)-5-methylpyrimidin-4-yl)-1H-indol-7-yl)-1-oxoisoindolin-4-yl)-3-methylcyclohexane-1-carboxamide], with 100 to 1000 nM.
As for `Cc1cnc(Nc2cc(C)n(C)n2)nc1-c1c[nH]c2c(NC(=O)CN3CC[C@H](O)C3)cccc12` [Example 72, (S)-N-(3-(2-((1,5-dimethyl-1H-pyrazol-3-yl)amino)-5-methylpyrimidin-4-yl)-1H-indol-7-yl)-2-(3-hydroxypyrrolidin-1-yl)acetamide], the IC50 lay within 10 to 100 nM.
Then `Cc1cnc(Nc2cc(C)n(C)n2)nc1-c1c[nH]c2c(N3Cc4c(cccc4-c4ccnc(N)n4)C3=O)cccc12` [Example 422, 4-(2-aminopyrimidin-4-yl)-2-(3-(2-((1,5-dimethyl-1H-pyrazol-3-yl)amino)-5-methylpyrimidin-4-yl)-1H-indol-7-yl)isoindolin-1-one], with less than 10 nM; and `Cc1cc(O[C@H]2CCN(CC(=O)Nc3cccc4c(-c5nc(Nc6cc(C)n(C)n6)ncc5C)c[nH]c34)C2)nc(N)n1` [Example 95, (S)-2-(3-((2-amino-6-methylpyrimidin-4-yl)oxy)pyrrolidin-1-yl)-N-(3-(2-((1,5-dimethyl-1H-pyrazol-3-yl)amino)-5-methylpyrimidin-4-yl)-1H-indol-7-yl)acetamide], with less than 10 nM; and `Cc1cnc(Nc2cc(C)n(C)n2)nc1-c1c[nH]c2c(NC(=O)CN3CC(O)C3)cccc12` [Example 26, N-(3-(2-((1,5-dimethyl-1H-pyrazol-3-yl)amino)-5-methylpyrimidin-4-yl)-1H-indol-7-yl)-2-(3-hydroxyazetidin-1-yl)acetamide], with 10 to 100 nM.
Under `CC1=CCC(C(=O)Nc2cccc3c2CN(c2cccc4c(-c5nc(Nc6cc(C)n(C)n6)ncc5C)c[nH]c24)C3=O)CC1` (stereo not shown) [Example 330, N-(2-(3-(2-((1,5-dimethyl-1H-pyrazol-3-yl)amino)-5-methylpyrimidin-4-yl)-1H-indol-7-yl)-1-oxoisoindolin-4-yl)-4-methylcyclohex-3-ene-1-carboxamide] stands 10 to 100 nM; under `Cc1cnc(Nc2cc(C)n(C)n2)nc1-c1c[nH]c2c(N3Cc4c(NC(=O)c5cnoc5C)cccc4C3=O)cccc12` [Example 321, N-(2-(3-(2-((1,5-dimethyl-1H-pyrazol-3-yl)amino)-5-methylpyrimidin-4-yl)-1H-indol-7-yl)-1-oxoisoindolin-4-yl)-5-methylisoxazole-4-carboxamide], less than 10 nM; under `CCCNC(=O)/C=C/c1cccc2c1CN(c1cccc3c(-c4nc(Nc5cc(C)n(C)n5)ncc4C)c[nH]c13)C2=O` [Example 373, (E)-3-(2-(3-(2-((1,5-dimethyl-1H-pyrazol-3-yl)amino)-5-methylpyrimidin-4-yl)-1H-indol-7-yl)-1-oxoisoindolin-4-yl)-N-propylacrylamide], less than 10 nM.
Under `Cc1cnc(Nc2cc(C)n(C)n2)nc1-c1c[nH]c2c(NC(=O)CN3CC[C@H](Oc4ccnc(NCC(F)(F)F)n4)C3)cccc12` [Example 198, (S)-N-(3-(2-((1,5-dimethyl-1H-pyrazol-3-yl)amino)-5-methylpyrimidin-4-yl)-1H-indol-7-yl)-2-(3-((2-((2,2,2-trifluoroethyl)amino)pyrimidin-4-yl)oxy)pyrrolidin-1-yl)acetamide] stands less than 10 nM; under `Cc1cnc(Nc2cc(C)n(C)n2)nc1-c1c[nH]c2c(NC(=O)CN3CC[C@H](Oc4nccc(N5CCCC5)n4)C3)cccc12` [Example 173, (S)-N-(3-(2-((1,5-dimethyl-1H-pyrazol-3-yl)amino)-5-methylpyrimidin-4-yl)-1H-indol-7-yl)-2-(3-((4-(pyrrolidin-1-yl)pyrimidin-2-yl)oxy)pyrrolidin-1-yl)acetamide], less than 10 nM; under `Cc1cnc(Nc2cc(C)n(C)n2)nc1-c1c[nH]c2c(NC(=O)CN3CCC(Oc4cccnc4)CC3)cccc12` [Example 38, N-(3-(2-((1,5-dimethyl-1H-pyrazol-3-yl)amino)-5-methylpyrimidin-4-yl)-1H-indol-7-yl)-2-(4-(pyridin-3-yloxy)piperidin-1-yl)acetamide], 100 to 1000 nM.
For `Cc1cnc(Nc2cc(C)n(C)n2)nc1-c1c[nH]c2c(NC(=O)CN3CC[C@H](Oc4ccnc(NC(C)C)n4)C3)cccc12` [Example 211, (S)-N-(3-(2-((1,5-dimethyl-1H-pyrazol-3-yl)amino)-5-methylpyrimidin-4-yl)-1H-indol-7-yl)-2-(3-((2-(isopropylamino)pyrimidin-4-yl)oxy)pyrrolidin-1-yl)acetamide], the IC50 was less than 10 nM.
As to `Cc1cnc(Nc2cc(C)n(C)n2)nc1-c1c[nH]c2c(N3Cc4cccc(N5CCN(C)CC5)c4C3=O)cccc12` [Example 348, 2-(3-(2-((1,5-dimethyl-1H-pyrazol-3-yl)amino)-5-methylpyrimidin-4-yl)-1H-indol-7-yl)-7-(4-methylpiperazin-1-yl)isoindolin-1-one], the IC50 was 10 to 100 nM.
Then `Cc1cnc(Nc2cc(C)n(C)n2)nc1-c1c[nH]c2c(N3C(=O)c4ccc([N+](=O)[O-])cc4C3=O)cccc12` [Example 264, 2-(3-(2-((1,5-dimethyl-1H-pyrazol-3-yl)amino)-5-methylpyrimidin-4-yl)-1H-indol-7-yl)-5-nitroisoindoline-1,3-dione], with less than 10 nM.
